In patent publication US20240000806A1, “METHODS AND MATERIALS FOR INHIBITING CB1 ACTIVITY” (University of Pittsburgh - Of the Commonwealth System of …, priority 2020, published 2024) one finds IC50 data, which are given here for 77 compounds.

Usually IC50 stands for the concentration needed to halve the response being measured.

The target of this assay is CB1 (CNR1) (Homo sapiens, UniProt P21554). Kind of assay: cAMP CNR1 Hunter cell line antagonist assay (CB1 assay). The note with it: antagonist mode, cAMP CNR1 Hunter cells, EC80 agonist; read-out: CB1 assay, Efficacy (IC50). Format: cell-based. The procedure: cAMP CNR1 Hunter cell line (Eurofins DiscoveryX) were expanded from freezer stocks and seeded in a total volume of 20 μL into white walled, 384-well microplates and incubated at 37° C. for the appropriate time prior to testing. For antagonist determination, cell media was aspirated from cells and replaced with 10 μL 1:1 HBSS/Hepes:cAMP XS+Ab reagent. 5 μL of 4× compound was added to the cells and incubated at 37° C. for 30 minutes. 5 μL of 4× EC80 agonist was added to cells and incubated at 37° C. for 30 minutes. After appropriate compound incubation, assay signal was generated through incubation with 20 μL cAMP XS+ED/CL lysis cocktail for one hour followed by incubation with 20 μL cAMP XS+EA reagent for three hours at room temperature. Microplates were read following signal generation with a PerkinElmer Envision™ instrument for chemiluminescent signal detection. Compound activity (IC50) was analyzed using CBIS data analysis suite (ChemInnovation, CA).
CB1 (CNR1), sequence (P21554 whole entry): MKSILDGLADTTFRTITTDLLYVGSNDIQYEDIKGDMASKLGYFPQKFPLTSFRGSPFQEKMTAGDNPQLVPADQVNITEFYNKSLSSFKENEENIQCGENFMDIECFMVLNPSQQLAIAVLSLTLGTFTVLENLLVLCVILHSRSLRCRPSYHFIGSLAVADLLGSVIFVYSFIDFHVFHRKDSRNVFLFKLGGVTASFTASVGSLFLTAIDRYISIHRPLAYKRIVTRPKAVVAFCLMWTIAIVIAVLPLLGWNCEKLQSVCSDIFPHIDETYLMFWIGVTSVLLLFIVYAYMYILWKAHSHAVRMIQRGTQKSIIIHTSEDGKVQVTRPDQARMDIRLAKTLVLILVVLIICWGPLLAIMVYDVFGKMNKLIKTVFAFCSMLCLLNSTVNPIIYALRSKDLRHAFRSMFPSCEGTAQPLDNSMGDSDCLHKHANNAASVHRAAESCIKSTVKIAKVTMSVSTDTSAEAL
Regarding `CC1Oc2c(cc(Cl)cc2S(=O)(=O)Nc2cccc(Cl)c2)NC1=O` (centres unmarked) [BC19716], the IC50 fell in the range of 1 to 25 µM.
The value for `Cc1ccc(NS(=O)(=O)c2cc3c(cc2Br)NC(=O)CCO3)cc1Cl` [BC19659] was not below 25 µM; that for `CC1Oc2cc(S(=O)(=O)Nc3ccc(C(C)C)cc3)c(Cl)cc2NC1=O` (centres unmarked) [BC19704] was not below 25 µM; that for `CCC1Oc2c(cc(Br)cc2S(=O)(=O)NCc2ccc(F)cc2F)NC1=O` (centres unmarked) [BC19374] was not below 25 µM.
Under `CCC1Oc2c(cc(Cl)cc2S(=O)(=O)Nc2cccc(Cl)c2)NC1=O` (centres unmarked) [BC19752] stands 1 to 25 µM.
On to `CCCNS(=O)(=O)c1cc2c(cc1Cl)NC(=O)C(CC)O2` (centres unmarked) [BC19214], for which the IC50 is not below 25 µM.
Take `CCc1ccc(NS(=O)(=O)c2cc3c(cc2Br)NC(=O)C(CC(C)C)O3)cc1` (centres unmarked) [BC19764]: the IC50 is 1 to 25 µM.
Turning to `CCS(=O)(=O)c1cc2c(c(S(=O)(=O)Nc3ccc(OC)c(Cl)c3)c1)OCC(=O)N2` [BC19547], the IC50 was not below 25 µM.
On to `Cc1ccc(NS(=O)(=O)c2c(C)c(Cl)cc3c2OCC(=O)N3)cc1` [BC19432], for which the IC50 was not below 25 µM.
As for `CCC1Oc2cc(S(=O)(=O)Nc3cccc(F)c3)c(Br)cc2NC1=O` (centres unmarked) [BC19220], the IC50 was not below 25 µM.
Consider `CCc1cccc(NS(=O)(=O)c2cc3c(cc2Br)N(C)C(=O)C(C)O3)c1` (centres unmarked) [BC19901], for which the IC50 is not below 25 µM.
In the case of `O=C1NCCOc2c1cc(Br)cc2S(=O)(=O)Nc1cccc(Cl)c1` [BC19611], the IC50 was not below 25 µM.
On to `CCc1ccc(NS(=O)(=O)c2cc(S(=O)(=O)CC)cc3c2OCC(=O)N3)cc1` [BC19492], for which the IC50 is not below 25 µM.
`Cc1ccc(NS(=O)(=O)c2cc(Br)cc3c2OC(C)C(=O)N3C)cc1` (centres unmarked) [BC19906]: the IC50 was not below 25 µM.
Consider `CCC1Oc2c(cc(Br)cc2S(=O)(=O)Nc2ccc(C)cc2)NC1=O` (centres unmarked) [BC19234], for which the IC50 was not below 25 µM.
Under `CC(C)NC(=O)N1c2cc(S(=O)(=O)N3CCCC3)ccc2NC(=O)C1C` (centres unmarked) [BC19298] stands not below 25 µM.
Regarding `CCC1Oc2c(cc(Cl)cc2S(=O)(=O)Nc2ccc(Cl)cc2)NC1=O` (centres unmarked) [BC19740], the IC50 was 1 to 25 µM.
The value for `CC(C)c1ccc(NS(=O)(=O)c2cc(Br)cc3c2OCCC(=O)N3)cc1` [BC19687] was not below 25 µM.
Consider `CCc1cccc(NS(=O)(=O)c2cc(Br)cc3c2OCCNC3=O)c1` [BC19609], for which the half-maximal inhibitory concentration (IC50) was in the range of 1 to 25 µM.
Consider `CCc1ccc(NS(=O)(=O)c2cc3c(cc2Br)NC(=O)CO3)cc1` [BC19138], for which the IC50 was less than 1 µM.
As to `CC(C)CC1Oc2c(cc(Br)cc2S(=O)(=O)Nc2ccc(F)cc2Cl)NC1=O` (centres unmarked) [BC19777], the IC50 is not below 25 µM.
Under `O=C1COc2c(cc(Cl)cc2S(=O)(=O)Nc2ccc(Cl)cc2)N1` [BC19169] stands less than 1 µM; under `CCC1Oc2c(cc(Br)cc2S(=O)(=O)NC2CCC(O)CC2)NC1=O` (centres unmarked) [BC19378], 1 to 25 µM; under `CCC1Oc2c(cc(Br)cc2S(=O)(=O)Nc2ccc(Cl)cc2)N(C)C1=O` (centres unmarked) [BC19929], not below 25 µM.
`Cc1ccc(NS(=O)(=O)c2cc(Br)cc3c2OCCNC3=O)cc1Cl` [BC19607]: the IC50 lay within 1 to 25 µM.
Take `CCC1Oc2c(cc(Cl)cc2S(=O)(=O)Nc2ccc(C)c(Cl)c2)NC1=O` (centres unmarked) [BC19746]: the IC50 was 1 to 25 µM.
Regarding `CC1Oc2cc(S(=O)(=O)Nc3ccc(F)c(F)c3)c(Cl)cc2NC1=O` (centres unmarked) [BC19698], the half-maximal inhibitory concentration (IC50) is not below 25 µM.
Under `CC1Oc2c(cc(Cl)cc2S(=O)(=O)Nc2ccc(C#N)cc2)NC1=O` (centres unmarked) [BC19730] stands 1 to 25 µM.
On to `CCC1Oc2cc(S(=O)(=O)Nc3ccc(F)cc3F)c(Cl)cc2NC1=O` (centres unmarked) [BC19747], for which the half-inhibitory concentration (IC50) fell in the range of 1 to 25 µM.
Consider `Cc1ccc(NS(=O)(=O)c2cc3c(cc2Br)N(C)C(=O)C(C)O3)cc1F` (centres unmarked) [BC19786], for which the IC50 was not below 25 µM.
On to `CC1Oc2cc(S(=O)(=O)Nc3cccc(Cl)c3)c(Cl)cc2NC1=O` (centres unmarked) [BC19715], for which the IC50 is less than 1 µM.
`CCC1Oc2cc(S(=O)(=O)Nc3ccc(C)c(F)c3)c(Cl)cc2NC1=O` (centres unmarked) [BC19212]: the IC50 lay in the range of 1 to 25 µM.
Under `Cc1ccc(NS(=O)(=O)c2cc(Br)cc3c2OC(C)C(=O)N3C)cc1F` (centres unmarked) [BC19785] stands not below 25 µM; under `CCC1Oc2c(cc(Cl)cc2S(=O)(=O)Nc2ccc(C)cc2)NC1=O` (centres unmarked) [BC19754], 1 to 25 µM.
As for `CCc1cccc(NS(=O)(=O)c2cc3c(cc2Br)NC(=O)CO3)c1` [BC19167], the concentration for half-maximal inhibition (IC50) is less than 1 µM.
For `CS(=O)(=O)c1cc2c(c(S(=O)(=O)Nc3ccc(C#N)cc3)c1)OCC(=O)N2` [BC19431], the IC50 was not below 25 µM.
As for `CCC1Oc2cc(S(=O)(=O)Nc3ccc(OC)c(Cl)c3)c(Cl)cc2NC1=O` (centres unmarked) [BC19743], the concentration for half-maximal inhibition (IC50) was not below 25 µM.
As for `Cc1cc2c(cc1S(=O)(=O)Nc1ccc(Cl)cc1)OCC(=O)N2` [BC19131], the IC50 is less than 1 µM.
Under `CC1Oc2cc(S(=O)(=O)Nc3cccc(F)c3)c(Br)cc2N(C)C1=O` (centres unmarked) [BC19903] stands 1 to 25 µM.
The value for `CC1Oc2cc(S(=O)(=O)Nc3ccc(Cl)cc3)c(Cl)cc2NC1=O` (centres unmarked) [BC19696] was 1 to 25 µM; that for `CCc1ccc(NS(=O)(=O)c2cc(Cl)cc3c2OC(CC)C(=O)N3)cc1` (centres unmarked) [BC19742] was 1 to 25 µM.
On to `O=C1COc2c(cc(Br)cc2S(=O)(=O)Nc2ccc(C(F)(F)F)cc2Cl)N1` [BC19384], for which the IC50 was not below 25 µM.
As for `CCC1Oc2c(cc(Br)cc2S(=O)(=O)Nc2ccc(OC(F)(F)F)cc2)N(C)C1=O` (centres unmarked) [BC19921], the IC50 was 1 to 25 µM.
With `CC(C)NS(=O)(=O)c1cc(Cl)cc2c1OC(C)C(=O)N2` (centres unmarked) [BC19293], the IC50 was not below 25 µM.
`CCC1Oc2cc(S(=O)(=O)Nc3ccc(C)c(Cl)c3)c(Br)cc2N(C)C1=O` (centres unmarked) [BC19938]: the half-maximal inhibitory concentration (IC50) is not below 25 µM.
On to `CCC1Oc2c(cc(Cl)cc2S(=O)(=O)Nc2ccc(F)c(F)c2)NC1=O` (centres unmarked) [BC19736], for which the IC50 is not below 25 µM.
As to `O=C1NCCOc2c1cc(Br)cc2S(=O)(=O)Nc1ccc(F)cc1` [BC19549], the IC50 is not below 25 µM.
`COc1ccc(NS(=O)(=O)c2cc3c(cc2Br)NC(=O)CO3)cc1` [BC19137]: the IC50 is less than 1 µM.
As for `CCc1cccc(NS(=O)(=O)c2cc(Br)cc3c2OC(C)C(=O)N3)c1` (centres unmarked) [BC19288], the IC50 fell in the range of 1 to 25 µM.
For `CCCNS(=O)(=O)c1cc2c(cc1Br)NC(=O)C(CC)O2` (centres unmarked) [BC19222], the IC50 lay in the range of 1 to 25 µM.
As to `CC1Oc2c(cc(Br)cc2S(=O)(=O)NC2CCC(O)CC2)NC1=O` (centres unmarked) [BC19366], the IC50 was not below 25 µM.
The value for `CCC1Oc2c(cc(Br)cc2S(=O)(=O)Nc2ccc(F)c(F)c2)N(C)C1=O` (centres unmarked) [BC19925] was 1 to 25 µM.
On to `CNC(=O)N1c2cc(S(=O)(=O)N3CCCC3)ccc2NC(=O)C1C` (centres unmarked) [BC19236], for which the IC50 is not below 25 µM.
The value for `CCS(=O)(=O)c1cc2c(c(S(=O)(=O)Nc3cccc(Cl)c3)c1)OCC(=O)N2` [BC19441] was not below 25 µM; that for `COc1ccc(NS(=O)(=O)c2cc3c(cc2Cl)NC(=O)C(C)O3)cc1` (centres unmarked) [BC19706] was not below 25 µM.
`Cc1ccc(NS(=O)(=O)c2cc(S(C)(=O)=O)cc3c2OCC(=O)N3)cc1F` [BC19423]: the IC50 is not below 25 µM.
In the case of `O=C1CCOc2cc(S(=O)(=O)Nc3cccc(F)c3)c(Br)cc2N1` [BC19654], the IC50 was not below 25 µM.
On to `CC1Oc2cc(S(=O)(=O)Nc3ccc(F)cc3)c(Cl)cc2NC1=O` (centres unmarked) [BC19721], for which the IC50 is less than 1 µM.
Take `CCS(=O)(=O)c1cc2c(c(S(=O)(=O)Nc3ccc(C#N)cc3)c1)OCC(=O)N2` [BC19548]: the IC50 is not below 25 µM.
Regarding `CCC1Oc2cc(S(=O)(=O)Nc3ccc(C)cc3)c(Br)cc2NC1=O` (centres unmarked) [BC19224], the IC50 is not below 25 µM.
`CCC1Oc2cc(S(=O)(=O)NCc3ccccc3)c(Br)cc2NC1=O` (centres unmarked) [BC19287]: the IC50 is 1 to 25 µM.
For `CCC1Oc2c(cc(Cl)cc2S(=O)(=O)Nc2ccc(F)cc2)NC1=O` (centres unmarked) [BC19732], the IC50 lay in the range of 1 to 25 µM.
As for `Cc1ccc(NS(=O)(=O)c2cc(S(C)(=O)=O)cc3c2OCC(=O)N3)cc1Cl` [BC19486], the IC50 was not below 25 µM.
As to `CC1Oc2c(cc(Br)cc2S(=O)(=O)Nc2ccc(C(C)C)cc2)N(C)C1=O` (centres unmarked) [BC19793], the IC50 is not below 25 µM.
Under `CCC1Oc2cc(S(=O)(=O)Nc3ccc(F)c(F)c3)c(Br)cc2N(C)C1=O` (centres unmarked) [BC19926] stands not below 25 µM; under `CC1Oc2c(cc(Br)cc2S(=O)(=O)NC2CCC(C(C)(C)C)CC2)NC1=O` (centres unmarked) [BC19367], not below 25 µM; under `CC1Oc2cc(S(=O)(=O)Nc3ccc(OC(F)(F)F)cc3)c(Cl)cc2NC1=O` (centres unmarked) [BC19354], not below 25 µM.
As for `CC1Oc2c(cc(Cl)cc2S(=O)(=O)Nc2ccc(F)cc2)NC1=O` (centres unmarked) [BC19722], the IC50 was in the range of 1 to 25 µM.
As for `O=C1COc2cc(S(=O)(=O)Nc3ccccc3)c(Cl)cc2N1` [BC19161], the IC50 is less than 1 µM.
`CCC1Oc2cc(S(=O)(=O)NC3CCC(O)CC3)c(Br)cc2NC1=O` (centres unmarked) [BC19372]: the IC50 was not below 25 µM.
In the case of `CCC1Oc2cc(S(=O)(=O)Nc3ccc(Cl)cc3)c(Br)cc2NC1=O` (centres unmarked) [BC19286], the IC50 is not below 25 µM.
Regarding `CC(=O)N1c2cc(S(=O)(=O)N3CCCC3)ccc2NC(=O)C1C` (centres unmarked) [BC19182], the IC50 was less than 1 µM.
For the compound `O=C1NCCOc2c1cc(Br)cc2S(=O)(=O)Nc1ccc(Cl)cc1` [BC19603], the IC50 is not below 25 µM.
With `COCCNC(=O)N1c2cc(S(=O)(=O)N3CCCC3)ccc2NC(=O)C1C` (centres unmarked) [BC19299], the IC50 lay within 1 to 25 µM.
The value for `CCc1ccc(NS(=O)(=O)c2cc3c(cc2Br)N(C)C(=O)C(CC)O3)cc1` (centres unmarked) [BC19932] was not below 25 µM; that for `CC1Oc2cc(S(=O)(=O)Nc3ccc(C#N)cc3)c(Cl)cc2NC1=O` (centres unmarked) [BC19729] was less than 1 µM; that for `Cc1ccc(NS(=O)(=O)c2cc3c(cc2Br)NC(=O)CCO3)cc1F` [BC19653] was not below 25 µM.
